{"source": "patent US20240091366A1", "about": "“NOVEL ACID-SENSITIVE APTAMER TRIPTOLIDE CONJUGATE AND APPLICATIONS” (priority 2022, published 2024)", "key": {"[1]": {"test_system": "breast cancer cell line MDA-MB-231", "assay": "MTT assay, cell proliferation inhibition", "assay_type": "cell-based", "conditions": "for cell proliferation inhibition rate: 48 h, samples 1-3", "excerpt": "(§1) Material: aptamer triptolide conjugate (AS1411-TP). Triptolide (TP) was provided by Shanghai Yaji Biotechnology Co. Ltd; aptamer (AS1411) was obtained from Chengdu Pilot Drug Development Co. Ltd; trypsin, thiazolyl blue (MTT) (Biofroxx, Germany); dimethyl sulfoxide (DMSO) (MP Biomedicals, France); fetal bovine serum (FBS) (Newzerum, New Zealand); DMEM medium, RPMI1640 medium, Petri dishes, 96-well plates (Corning, USA); colon cancer cells HCT116, breast cancer cells MDA-MB-231, non-small-cell lung cancer cells A549, pancreatic cancer cells PANC-1, and hepatocellular carcinoma cells HepG2 were purchased from the Shanghai Cell Bank of the Chinese Academy of Sciences and preserved in the laboratory.\n(§2) Take the tumor cells HCT116, MDA-MB-231, A549, PANC-1 and HepG2 cell lines from the liquid nitrogen tank, place them in a 37° C. water bath, wait for the frozen cells to melt into cell suspension, centrifuge the cells at 1000 r/min for 3 min, discard the supernatant, add 1 ml of fresh complete medium containing 10% fetal bovine serum and 1% double antibody to mix the cells, then add 5 ml of medium, gently and repeatedly blowing the cells with a pipette gun to make them mix well. Then add 5 ml of medium, blow the cells gently and repeatedly with a pipette gun to mix them well, and finally transfer the cell suspension to a […] and label the cell name, cell number, date of resuscitation and the operator's name, and place it in a cell culture incubator for cultivation. (HCT116, PANC-1 and HepG2 cell lines were cultured in DMEM medium, while MDA-MB-231 cell line and A549 cell line were cultured in RPMI1640 medium).\n(§3) Take HCT116, MDA-MB-231, A549, PANC-1, HepG2 cells with good growth status, remove the medium, add 1 ml of sterile PBS to wash, add 1.5 ml of trypsin to digest the cells, about 2 min later the cells become round and fall off, add 1.5 ml of medium to terminate the digestion, transfer it to centrifugal tube, centrifuge at 1000 r/min for 3 min, discard the supernatant, add 1 ml of fresh medium to resuspend, then add fresh medium for 1:3 distribution to other culture dishes, and label the date of transmission and the number of generations. Place in the cell culture incubator for cultivation.\n(§4) Take HCT116, MDA-MB-231, A549, PANC-1, HepG2 cells with good growth status, by the same operation as the cell passaging experiment, after cell resuspension, cell counting with hemocyte counting plate, with 2500 cells/well, plant in 96-well plate, after 24 h of cell culture, remove the original medium, add medium containing different concentrations of drugs and continue to cultivate for 48 hours. After 24 h of cell culture, the original medium was removed and the medium containing different concentrations of drugs was added to continue the culture for 48 hours. […] The above steps were repeated three times."}, "[2]": {"test_system": "colon cancer cell line HCT116", "assay": "MTT assay, cell proliferation inhibition", "assay_type": "cell-based", "conditions": "for cell proliferation inhibition rate: 48 h, samples 1-3", "excerpt": "as §1, §2, §3, §4"}, "[3]": {"test_system": "hepatocellular carcinoma cell line HepG2", "assay": "MTT assay, cell proliferation inhibition", "assay_type": "cell-based", "conditions": "for cell proliferation inhibition rate: 48 h, samples 1-3", "excerpt": "as §1, §2, §3, §4"}, "[4]": {"test_system": "lung adenocarcinoma cell line A549", "assay": "MTT assay, cell proliferation inhibition", "assay_type": "cell-based", "conditions": "for cell proliferation inhibition rate: 48 h, samples 1-3", "excerpt": "as §1, §2, §3, §4"}, "[5]": {"test_system": "pancreatic cancer cell line PANC-1", "assay": "MTT assay, cell proliferation inhibition", "assay_type": "cell-based", "conditions": "for cell proliferation inhibition rate: 48 h, samples 1-3", "excerpt": "as §1, §2, §3, §4"}, "[6]": {"test_system": "lung cancer cell line A549", "assay": "In vivo antitumor activity, lung cancer xenograft in nude mice", "parameters": "species or system mouse; Tumor weight: unit not given here", "conditions": "A549 model, once every 2 days, 8 doses", "excerpt": "The following are the in vivo activity studies conducted in different tumor-bearing mice:\nA PBS negative control group was set up."}}, "note": "Values joined by “and” are separate entries in the source; they are usually repeats but may differ in a detail not shown here. Equal entries are not always repeated."}
{"substance": "AS1411: nucleolin aptamer, single-stranded oligonucleotide, SEQ ID NO: 1 GGTGGTGGTGGTTGTGGTGGTGGTGG", "values": [{"measurement": "cell proliferation inhibition rate", "setting": "[1]; MDA-MB-231, 3.1 nM, 0.0031 µM", "result": "2.2910 and 2.1209 and 2.5159"}, {"measurement": "cell proliferation inhibition rate", "setting": "[1]; MDA-MB-231, 6.3 nM, 0.0063 µM", "result": "3.2333 and 4.9611 and 4.2994"}, {"measurement": "cell proliferation inhibition rate", "setting": "[1]; MDA-MB-231, 25.0 nM, 0.025 µM", "result": "5.5843 and 7.7330 and 4.4586"}, {"measurement": "cell proliferation inhibition rate", "setting": "[1]; MDA-MB-231, 50.0 nM, 0.05 µM", "result": "6.8129 and 6.6467 and 6.1306"}, {"measurement": "cell proliferation inhibition rate", "setting": "[1]; MDA-MB-231, 100.0 nM, 0.1 µM", "result": "9.0069 and 8.0722 and 8.6624"}, {"measurement": "cell proliferation inhibition rate", "setting": "[1]; MDA-MB-231, 200.0 nM, 0.2 µM", "result": "14.4727 and 11.8492 and 10.6369"}, {"measurement": "inhibitory effect on tumor cell", "setting": "[1]; MDA-MB-231, at the experimental concentration", "result": "did not have any significant inhibitory effect"}, {"measurement": "cell proliferation inhibition rate", "setting": "[2]; HCT116, 6.3 nM, 0.0063 µM", "result": "2.9669 and 1.6683 and 3.1584"}, {"measurement": "cell proliferation inhibition rate", "setting": "[2]; HCT116, 12.5 nM, 0.0125 µM", "result": "4.1987 and 3.0229 and 2.5102"}, {"measurement": "cell proliferation inhibition rate", "setting": "[2]; HCT116, 25.0 nM, 0.025 µM", "result": "5.4987 and 6.2971 and 5.6986"}, {"measurement": "cell proliferation inhibition rate", "setting": "[2]; HCT116, 50.0 nM, 0.05 µM", "result": "6.5424 and 6.5952 and 5.0330"}, {"measurement": "cell proliferation inhibition rate", "setting": "[2]; HCT116, 100.0 nM, 0.1 µM", "result": "10.6504 and 12.1637 and 10.9076"}, {"measurement": "cell proliferation inhibition rate", "setting": "[2]; HCT116, 200.0 nM, 0.2 µM", "result": "16.9608 and 13.5881 and 14.2937"}, {"measurement": "inhibitory effect on tumor cell", "setting": "[2]; HCT116, at the experimental concentration", "result": "did not have any significant inhibitory effect"}, {"measurement": "cell proliferation inhibition rate", "setting": "[3]; HepG2, 3.1 nM, 0.0031 µM", "result": "2.0417 and 2.2455 and 2.1946"}, {"measurement": "cell proliferation inhibition rate", "setting": "[3]; HepG2, 12.5 nM, 0.0125 µM", "result": "3.5280 and 2.4483 and 3.6148"}, {"measurement": "cell proliferation inhibition rate", "setting": "[3]; HepG2, 25.0 nM, 0.025 µM", "result": "4.1258 and 3.9268 and 4.1946"}, {"measurement": "cell proliferation inhibition rate", "setting": "[3]; HepG2, 50.0 nM, 0.05 µM", "result": "8.4300 and 6.9712 and 9.6253"}, {"measurement": "cell proliferation inhibition rate", "setting": "[3]; HepG2, 100.0 nM, 0.1 µM", "result": "7.2906 and 11.7328 and 8.7216"}, {"measurement": "cell proliferation inhibition rate", "setting": "[3]; HepG2, 200.0 nM, 0.2 µM", "result": "10.3764 and 15.8325 and 9.9457"}, {"measurement": "inhibitory effect on tumor cell", "setting": "[3]; HepG2, at the experimental concentration", "result": "did not have any significant inhibitory effect"}, {"measurement": "cell proliferation inhibition rate", "setting": "[4]; A549, 12.5 nM, 0.0125 µM", "result": "5.5843 and 7.7330 and 4.4586"}, {"measurement": "cell proliferation inhibition rate", "setting": "[4]; A549, 25.0 nM, 0.025 µM", "result": "6.8129 and 6.6467 and 6.1306"}, {"measurement": "cell proliferation inhibition rate", "setting": "[4]; A549, 50.0 nM, 0.05 µM", "result": "9.0069 and 8.0722 and 7.6624"}, {"measurement": "cell proliferation inhibition rate", "setting": "[4]; A549, 100.0 nM, 0.1 µM", "result": "11.4727 and 11.8492 and 10.6369"}, {"measurement": "cell proliferation inhibition rate", "setting": "[4]; A549, 200.0 nM, 0.2 µM", "result": "14.5704 and 11.4171 and 14.3285"}, {"measurement": "inhibitory effect on tumor cell", "setting": "[4]; A549, at the experimental concentration", "result": "did not have any significant inhibitory effect"}, {"measurement": "cell proliferation inhibition rate", "setting": "[5]; PANC-1, 12.5 nM, 0.0125 µM", "result": "3.6656 and 3.5639 and 3.6148"}, {"measurement": "cell proliferation inhibition rate", "setting": "[5]; PANC-1, 25.0 nM, 0.025 µM", "result": "3.0417 and 4.2455 and 4.1946"}, {"measurement": "cell proliferation inhibition rate", "setting": "[5]; PANC-1, 50.0 nM, 0.05 µM", "result": "7.2954 and 7.9552 and 9.6253"}, {"measurement": "cell proliferation inhibition rate", "setting": "[5]; PANC-1, 100.0 nM, 0.1 µM", "result": "8.3147 and 7.1285 and 8.7216"}, {"measurement": "cell proliferation inhibition rate", "setting": "[5]; PANC-1, 200.0 nM, 0.2 µM", "result": "9.6236 and 10.2679 and 9.9457"}, {"measurement": "inhibitory effect on tumor cell", "setting": "[5]; PANC-1, at the experimental concentration", "result": "did not have any significant inhibitory effect"}, {"measurement": "RTV", "setting": "[6]; 10 μM tail vein", "result": "34.57 ± 0.18"}, {"measurement": "T/C (%)", "setting": "[6]; 10 μM tail vein", "result": 89.93, "unit": "%"}, {"measurement": "Tumor inhibition rate (%)", "setting": "[6]; 10 μM tail vein", "result": 6.06, "unit": "%"}, {"measurement": "Tumor weight", "setting": "[6]; 10 μM tail vein", "result": "3.16 ± 0.13"}, {"measurement": "RTV", "setting": "[6]; 30 μM tail vein", "result": "31.09 ± 0.27"}, {"measurement": "T/C (%)", "setting": "[6]; 30 μM tail vein", "result": 75.76, "unit": "%"}, {"measurement": "Tumor inhibition rate (%)", "setting": "[6]; 30 μM tail vein", "result": 15.15, "unit": "%"}, {"measurement": "Tumor weight", "setting": "[6]; 30 μM tail vein", "result": "2.88 ± 0.26"}, {"measurement": "RTV", "setting": "[6]; 50 μM tail vein", "result": "26.19 ± 0.38"}, {"measurement": "T/C (%)", "setting": "[6]; 50 μM tail vein", "result": 70.06, "unit": "%"}, {"measurement": "Tumor inhibition rate (%)", "setting": "[6]; 50 μM tail vein", "result": 21.21, "unit": "%"}, {"measurement": "Tumor weight", "setting": "[6]; 50 μM tail vein", "result": "2.61 ± 0.38"}]}
